Experimental data taken from paper PMC6960228, “Ethoxysanguinarine, a Novel Direct Activator of AMP-Activated Protein Kinase, Induces Autophagy and Exhibits Therapeutic Potential in Breast Cancer Cells” (Frontiers in Pharmacology, 2020).

Assays:
MDA-MB-231 = assay: MTT cytotoxicity assay; assay type: cell-based; details: Homo sapiens, MDA-MB-231, 24 h
Text: (§1) Human BC cell lines MCF-7, MDA-MB-231, DMA-MB-436, SK-BR3, MDA-MB-468, MDA-MB-453, and MDA-MB-435S and non-tumorigenic MCF-10A human mammary epithelial cells were obtained from American Type Culture Collection (ATCC; Manassas, VA, USA). MCF-7, SK-BR3, MDA-MB-231, and MDA-MB-436 cells were maintained in Dulbecco’s modified Eagle’s medium (DMEM; high glucose; Gibco; Thermo Fisher Scientific, Inc., Waltham, MA, USA) supplemented with 10% fetal bovine serum (FBS; HyClone; Logan, UT, USA) and antibiotics and incubated in a humidified atmosphere with 5% CO2 at 37°C. MDA-MB-468, MDA-MB-453, and MDA-MB-435S cells were maintained in Leibovitz’s L-15 (Gibco) supplemented with 10% FBS and antibiotics and incubated in a humidified atmosphere without CO2 at 37°C. MCF-10A cells were maintained in DMEM/F12 medium containing 5% horse serum (HS), insulin ([…]), epidermal growth factor (EGF, 20 ng/mL), choleratoxin ([…]), hydrocortisone ([…]), penicillin (50 U/mL), and streptomycin (50 U/mL), and incubated in a humidified atmosphere with CO2 at 37°C.
(§2) Cells were seeded into 96-well plate and pre-cultured for 24 h, then treated with Eth for 24. Cell cytotoxicity was determined by MTT assay. The absorbance was measured at 490 nm by automated microplated reader (BioTek Instruments, Inc., Winooski, VT, USA), and the cell death rate was calculated as followed: inhibition rate (%) = (average A490 of the control group − average A490 of the experimental group)/(average A490 of the control group − average A490 of the blank group) × 100%. Cell viability was estimated by trypan blue dye exclusion.

MDA-MB-435S = assay: MTT cytotoxicity assay; assay type: cell-based; details: Homo sapiens, 24 h, means ± SD of quadruplicate determinations
Text: as §1, §2

MDA-MB-436 = assay: MTT cytotoxicity assay; assay type: cell-based; details: Homo sapiens, MDA-MB-436, 24 h
Text: as §1, §2

MDA-MB-453 = assay: MTT cytotoxicity assay; assay type: cell-based; details: Homo sapiens, MDA-MB-453, 24 h, means ± SD of quadruplicate determinations
Text: as §1, §2

SK-BR3 = assay: MTT cytotoxicity assay; assay type: cell-based; details: Homo sapiens, SK-BR-3, SK-BR3, 24 h, means ± SD of quadruplicate determinations
Text: as §1, §2

[1] = test system: AMPK/mTORC1 signaling in MCF-7, MDA-MB-231, and MDA-MB-436 cells; assay: Western blot of AMPK/mTORC1 signaling; assay type: cell-based, human; details: western blot
Method: Cells were lysed in radioimmunoprecipitation assay buffer containing 50 mM Tris, pH 8.0, 150 mM NaCl, 0.1% SDS, 0.5% sodium deoxycholate, 1% NP-40, 1 mM DTT, 1 mM NaF, 1 mM sodium orthovanadate, 1 mM phenylmethylsulfonyl fluoride (PMSF; Sigma-Aldrich; Merck KGaA), and 1% protease inhibitors cocktail (EMD Millipore, Billerica, MA, USA). Protein concentration was determined using the Bradford method. Equal amounts of sample (25 µg) were separated by SDS-PAGE (8–12% gels). Electrophoresed proteins were then transferred onto polyvinylidene fluoride membranes (EMD Millipore, Billerica, MA, USA). The membranes were blocked with 5% skimmed milk in Tris-buffered saline at room temperature for 1 h. Following blocking, membranes were incubated overnight at 4°C with primary antibodies and then rinsed with Tris-buffered saline with Tween 20. The following primary antibodies were used: anti-Glut3 (1:500; catalog no. sc-74399) (Santa Cruz Biotechnology, Inc., Dallas, TX, USA); anti-LC3 (1:1000; catalog no. 12741), anti-AMPKα (1:1000; catalog no. 2532), anti-phospho-AMPKα (Thr172) (1:1000; catalog no. 2535), anti-phospho-AMPKβ1 (Ser108) (1:1000; catalog no. 4181), anti-AMPKγ1 (1:1000; catalog no. 4187), anti-mTOR (1:1000; catalog no. 2983), anti-phospho-mTOR (Ser2448) (1:1000; catalog no. 5536), anti-P70S6K (1:1000; catalog no. 9202), anti-phospho-P70S6K (Thr389) (1:1000; catalog no. 92775), anti-4E-BP1 (1:1000; catalog no. 9234), anti-phospho-4E-BP1 (Thr37/46) (1:1000; catalog no. 2855), anti-ACC (1:1000; catalog no. 3676), anti-phospho-ACC ([…]) (1:1000; catalog no. 11818), anti-Glut1 (1:1000; catalog no. 12939), anti-Glut4 (1:1000; catalog no. 2213) (All Cell Signaling Technology, Inc., Danvers, MA, USA), and anti-GAPDH (1:5000; catalog no. M20006; Abmart, Shanghai, China). Membranes were then washed, and incubated with horseradish peroxidase-conjugated secondary antibody (1:10000; E030120-01 and E030110-01; EarthOx, LLC, San Francisco, CA, USA) for 1.5 h at room temperature. The protein bands were visualized using SuperSignal® West Pico PLUS Chemiluminescent substrate (catalog no. 34579; Pierce; Thermo Fisher Scientific, Inc., Rockford, IL, USA) ([Zhang et al., 2018]).
Figure 3 Eth induces autophagy through the AMPK/mTORC1 signaling. (A): MCF-7, MDA-MB-231, or MDA-MB-436 cells were treated with increasing concentrations of Eth for 24 h. Western blot was performed using antibodies indicated. […] (D): MDA-MB-231 or MDA-MB-436 cells transfected with pQCXIP-GFP-LC3 plasmid were treated with Eth (2.0 µM) and/or CC (25 µM) for 24 h, and assessed by immunoﬂuorescence analyses. […] (G): MDA-MB-231 or MDA-MB-436 cells transfected with pQCXIP-GFP-LC3 plasmid were treated with Eth (1.0 µM or 1.6 µM) and/or Met (10 mM) for 24 h, and assessed by immunoﬂuorescence analyses. […]

## CCOC1c2c(ccc3c2OCO3)-c2ccc3cc4c(cc3c2N1C)OCO4 (stereo not shown) [Eth, Ethoxysanguinarine]
MDA-MB-231
  IC50: 3.75 ± 0.94 µM
MDA-MB-435S
  IC50: 4.58 ± 0.77 µM
MDA-MB-436
  IC50: 2.63 ± 0.65 µM
MDA-MB-453
  IC50: 7.06 ± 0.59 µM
SK-BR3
  IC50: 2.79 ± 0.39 µM
[1]
  phosphorylation of mTORC1 effectors (mTOR, p70S6K, and 4EBP1): decreased the phosphorylation of mTORC1 effectors
[1]; dose- and time-dependent
  phosphorylation of AMPKα at Thr172: increased
